According to the supplement of paper PMC10307832:

What was measured:
Assay in all cases: relative viability (nuclei count vs DMSO), 5 days (fraction); higher = more cells survive
NCI-H1563 = tested on: NCI-H1563
Outline: (§1)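 Cells from lung cancer lines were seeded into 1536-well plates and, one day later, dosed by pin tool. Treatments were either a single drug or a fixed dose of an anchor drug with five library-drug doses (not always all listed) in √10 steps. After 5 days, nuclei were stained in a one-step fixation (final 0.05% Triton X-100, 1% formaldehyde, 1 ug/ml Hoechst) and counted on 4× images, and relative viability is the treated-to-vehicle nuclei ratio, as the median of duplicate plates.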

201T = tested on: 201T
Outline: as §1

SW 1573 = tested on: SW 1573
Outline: as §1

NCI-H727 = tested on: NCI-H727
Outline: as §1

NCI-H1650 = tested on: NCI-H1650
Outline: as §1

H3255 = tested on: H3255
Outline: as §1

NCI-H1793 = tested on: NCI-H1793
Outline: as §1

LK-2 = tested on: LK-2
Outline: as §1

NCI-H2228 = tested on: NCI-H2228
Outline: as §1

HCC-44 = tested on: HCC-44
Outline: as §1

LC-2-ad = tested on: LC-2-ad
Outline: as §1

NCI-H23 = tested on: NCI-H23
Outline: as §1

NCI-H596 = tested on: NCI-H596
Outline: as §1

PC-14 = tested on: PC-14
Outline: as §1

COR-L23 = tested on: COR-L23
Outline: as §1

A-427 = tested on: A-427
Outline: as §1

LU99A = tested on: LU99A
Outline: as §1

NCI-H460 = tested on: NCI-H460
Outline: as §1

LCLC-103H = tested on: LCLC-103H
Outline: as §1

NCI-H2347 = tested on: NCI-H2347
Outline: as §1

LCLC-97TM1 = tested on: LCLC-97TM1
Outline: as §1

Cc1sc2c(c1C)C(c1ccc(Cl)cc1)=N[C@@H](CC(=O)OC(C)(C)C)c1nnc(C)n1-2 [JQ1] + CS(=O)(=O)N1CCN(Cc2cc3nc(-c4cccc5[nH]ncc45)nc(N4CCOCC4)c3s2)CC1 [Pictilisib] (partner 1 µM)
relative viability (NCI-H1563; first compound 0.04 µM): 0.606
relative viability (NCI-H1563; first compound 0.1265 µM): 0.645
relative viability (NCI-H1563; first compound 0.4 µM): 0.611
relative viability (NCI-H1563; first compound 1.265 µM): 0.622
relative viability (NCI-H1563; first compound 4 µM): 0.638
relative viability (201T; first compound 0.04 µM): 0.656
relative viability (201T; first compound 0.1265 µM): 0.644
relative viability (201T; first compound 0.4 µM): 0.519
relative viability (201T; first compound 1.265 µM): 0.474
relative viability (201T; first compound 4 µM): 0.399
relative viability (SW 1573; first compound 0.04 µM): 0.486
relative viability (SW 1573; first compound 0.1265 µM): 0.443
relative viability (SW 1573; first compound 0.4 µM): 0.421
relative viability (SW 1573; first compound 1.265 µM): 0.212
relative viability (SW 1573; first compound 4 µM): 0.221
relative viability (NCI-H727; first compound 0.04 µM): 0.371
relative viability (NCI-H727; first compound 0.1265 µM): 0.554
relative viability (NCI-H727; first compound 0.4 µM): 0.205
relative viability (NCI-H727; first compound 1.265 µM): 0.233
relative viability (NCI-H727; first compound 4 µM): 0.309
relative viability (NCI-H1650; first compound 0.04 µM): 0.625
relative viability (NCI-H1650; first compound 0.1265 µM): 0.445
relative viability (NCI-H1650; first compound 0.4 µM): 0.286
relative viability (NCI-H1650; first compound 1.265 µM): 0.122
relative viability (NCI-H1650; first compound 4 µM): 0.169
relative viability (H3255; first compound 0.04 µM): 0.468
relative viability (H3255; first compound 0.1265 µM): 0.464
relative viability (H3255; first compound 0.4 µM): 0.552
relative viability (H3255; first compound 1.265 µM): 0.381
relative viability (H3255; first compound 4 µM): 0.338
relative viability (NCI-H1793; first compound 0.04 µM): 0.434
relative viability (NCI-H1793; first compound 0.1265 µM): 0.391
relative viability (NCI-H1793; first compound 0.4 µM): 0.564
relative viability (NCI-H1793; first compound 1.265 µM): 0.339
relative viability (NCI-H1793; first compound 4 µM): 0.453
relative viability (LK-2; first compound 0.04 µM): 0.514
relative viability (LK-2; first compound 0.1265 µM): 0.511
relative viability (LK-2; first compound 0.4 µM): 0.35
relative viability (LK-2; first compound 1.265 µM): 0.223
relative viability (LK-2; first compound 4 µM): 0.226
relative viability (NCI-H2228; first compound 0.04 µM): 0.372
relative viability (NCI-H2228; first compound 0.1265 µM): 0.327
relative viability (NCI-H2228; first compound 0.4 µM): 0.259
relative viability (NCI-H2228; first compound 1.265 µM): 0.245
relative viability (NCI-H2228; first compound 4 µM): 0.201
relative viability (HCC-44; first compound 0.04 µM): 0.623
relative viability (HCC-44; first compound 0.1265 µM): 0.498
relative viability (HCC-44; first compound 0.4 µM): 0.532
relative viability (HCC-44; first compound 1.265 µM): 0.294
relative viability (HCC-44; first compound 4 µM): 0.213
relative viability (LC-2-ad; first compound 0.04 µM): 0.386
relative viability (LC-2-ad; first compound 0.1265 µM): 0.605
relative viability (LC-2-ad; first compound 0.4 µM): 0.263
relative viability (LC-2-ad; first compound 1.265 µM): 0.121
relative viability (LC-2-ad; first compound 4 µM): 0.117
relative viability (NCI-H23; first compound 0.04 µM): 0.46
relative viability (NCI-H23; first compound 0.1265 µM): 0.453
relative viability (NCI-H23; first compound 0.4 µM): 0.447
relative viability (NCI-H23; first compound 1.265 µM): 0.162
relative viability (NCI-H23; first compound 4 µM): 0.183
relative viability (NCI-H596; first compound 0.04 µM): 0.412
relative viability (NCI-H596; first compound 0.1265 µM): 0.395
relative viability (NCI-H596; first compound 0.4 µM): 0.477
relative viability (NCI-H596; first compound 1.265 µM): 0.365
relative viability (NCI-H596; first compound 4 µM): 0.293
relative viability (PC-14; first compound 0.04 µM): 0.631
relative viability (PC-14; first compound 0.1265 µM): 0.498
relative viability (PC-14; first compound 0.4 µM): 0.445
relative viability (PC-14; first compound 1.265 µM): 0.243
relative viability (PC-14; first compound 4 µM): 0.122
relative viability (COR-L23; first compound 0.04 µM): 0.805
relative viability (COR-L23; first compound 0.1265 µM): 0.692
relative viability (COR-L23; first compound 0.4 µM): 0.524
relative viability (COR-L23; first compound 1.265 µM): 0.3
relative viability (COR-L23; first compound 4 µM): 0.202
relative viability (A-427; first compound 0.04 µM): 0.81
relative viability (A-427; first compound 0.1265 µM): 0.748
relative viability (A-427; first compound 0.4 µM): 0.674
relative viability (A-427; first compound 1.265 µM): 0.511
relative viability (A-427; first compound 4 µM): 0.465
relative viability (LU99A; first compound 0.04 µM): 0.322
relative viability (LU99A; first compound 0.1265 µM): 0.32
relative viability (LU99A; first compound 0.4 µM): 0.398
relative viability (LU99A; first compound 1.265 µM): 0.201
relative viability (LU99A; first compound 4 µM): 0.203
relative viability (NCI-H460; first compound 0.04 µM): 0.398
relative viability (NCI-H460; first compound 0.4 µM): 0.276
relative viability (NCI-H460; first compound 1.265 µM): 0.204
relative viability (NCI-H460; first compound 4 µM): 0.135
relative viability (LCLC-103H; first compound 0.04 µM): 0.571
relative viability (LCLC-103H; first compound 0.1265 µM): 0.522
relative viability (LCLC-103H; first compound 0.4 µM): 0.537
relative viability (LCLC-103H; first compound 1.265 µM): 0.4
relative viability (LCLC-103H; first compound 4 µM): 0.352
relative viability (NCI-H2347; first compound 0.04 µM): 0.791
relative viability (NCI-H2347; first compound 0.1265 µM): 0.529
relative viability (NCI-H2347; first compound 0.4 µM): 0.542
relative viability (NCI-H2347; first compound 1.265 µM): 0.334
relative viability (NCI-H2347; first compound 4 µM): 0.372
relative viability (LCLC-97TM1; first compound 0.1265 µM): 0.28
relative viability (LCLC-97TM1; first compound 0.4 µM): 0.176
relative viability (LCLC-97TM1; first compound 1.265 µM): 0.105
relative viability (LCLC-97TM1; first compound 4 µM): 0.107
